Data: US7932270B2 (Cytokinetics, Inc., priority 2006, dated 2011)

biological target: T1, chicken gizzard smooth muscle myosin subfragment-1 chemically crosslinked to cardiac or skeletal actin (Gallus gallus, UniProt P10587); assay: Smooth muscle myosin ATPase dose response assay (pyruvate kinase/horseradish peroxidase/pyruvate oxidase-coupled, amplex red fluorescence); format: biochemical; conditions: read-out: IC50 Arithmetic Mean
T1 construct: chicken gizzard smooth muscle myosin subfragment-1; from tissue; host or cells: chicken gizzard
Procedure, shortened: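 EDC/NHS-crosslinked S1–actin, amount set per prep by rate titration. Buffer: 12 mM K-PIPES pH 7.00 (22° C), 100 mM KCl, 2 mM MgCl2, 0.15 mM ATP, 0.1 mM PEP, 2 mM KPi, 0.1 mM amplex red. Read ex 480/em 615 nm; IC50 = midpoint, 4-param Hill fit.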

T1 sequence (P02607 2-151): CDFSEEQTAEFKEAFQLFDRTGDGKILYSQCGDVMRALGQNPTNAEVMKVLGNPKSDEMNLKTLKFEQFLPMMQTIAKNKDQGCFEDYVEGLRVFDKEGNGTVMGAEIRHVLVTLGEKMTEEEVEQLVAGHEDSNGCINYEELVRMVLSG
T1 sequence (P10587 84-789): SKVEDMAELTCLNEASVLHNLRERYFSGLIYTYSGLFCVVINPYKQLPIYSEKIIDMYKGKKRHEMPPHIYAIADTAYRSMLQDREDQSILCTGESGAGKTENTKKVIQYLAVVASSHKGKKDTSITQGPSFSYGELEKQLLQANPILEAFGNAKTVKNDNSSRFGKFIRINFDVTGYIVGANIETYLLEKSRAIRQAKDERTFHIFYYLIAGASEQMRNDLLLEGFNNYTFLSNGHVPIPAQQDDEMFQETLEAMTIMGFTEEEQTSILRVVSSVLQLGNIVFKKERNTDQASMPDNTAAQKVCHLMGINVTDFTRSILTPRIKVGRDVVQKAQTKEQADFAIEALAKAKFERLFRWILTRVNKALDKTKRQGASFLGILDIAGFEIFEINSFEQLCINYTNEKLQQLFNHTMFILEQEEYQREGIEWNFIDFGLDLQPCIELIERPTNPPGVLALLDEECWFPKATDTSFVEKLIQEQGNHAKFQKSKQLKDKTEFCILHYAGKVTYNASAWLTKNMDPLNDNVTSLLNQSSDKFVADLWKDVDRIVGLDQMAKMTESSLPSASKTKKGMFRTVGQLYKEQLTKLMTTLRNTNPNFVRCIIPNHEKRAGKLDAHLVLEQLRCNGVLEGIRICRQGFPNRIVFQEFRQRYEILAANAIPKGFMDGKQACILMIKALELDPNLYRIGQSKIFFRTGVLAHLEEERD

Compound	IC50 [nM]
O=C(NCc1cccnc1)c1ccc(-c2ccc(C(=O)NCc3cccnc3)c(NCCc3cccc(F)c3)n2)nc1NCCc1cccc(F)c1 [[2-{[2-(3-fluorophenyl)ethyl]amino}-6-(6-{[2-(3-fluorophenyl)ethyl]amino}-5-[N-(3-pyridylmethyl)carbamoyl](2-pyridyl))(3-pyridyl)]-N-(3-pyridylmethyl)carboxamide]	30600
NCc1ccc(-c2ccccc2)nc1NCCc1cccc(F)c1 [[3-(aminomethyl)-6-phenyl(2-pyridyl)][2-(3 fluorophenyl)ethyl]amine]	39500
CCCNc1nc(-c2ccccc2)ccc1C(=O)NCc1cccnc1 [[6-phenyl-2-(propylamino)(3-pyridyl)]-N-(3-pyridylmethyl)carboxamide]	11400
O=C(NCc1cccnc1)c1ccc(-c2ccccc2)nc1NCCc1cccc(C(F)(F)F)c1 [[6-phenyl-2-({2-[3-(trifluoromethyl)phenyl]ethyl}amino)(3-pyridyl)]-N-(3-pyridylmethyl)carboxamide]	8250
CCOC(=O)CNCC(O)c1ccc(-c2ccccc2)nc1NCCc1cccc(F)c1 (stereo not shown) [ethyl 2-{[2-(2-{[2-(3-fluorophenyl)ethyl]amino}-6-phenyl(3-pyridyl))-2-hydroxyethyl]amino}acetate]	15100
CCOC(=O)CCNC(=O)c1ccc(-c2ccccc2C#N)nc1NCCc1cccc(F)c1 [ethyl 3-[(6-(2-cyanophenyl)-2-{[2-(3-fluorophenyl)ethyl]amino}-3-pyridyl)carbonylamino]propanoate]	4790
COC(=O)CNC(=O)c1ccc(-c2ccccc2)nc1NCCc1ccccc1 [methyl 2-({6-phenyl-2-[(2-phenylethyl)amino]-3-pyridyl}carbonylamino)acetate]	1340
COC(=O)CNC[C@H](N)CNC(=O)c1ccc(-c2cnn(C)c2)nc1NCCc1cccc(F)c1 [methyl 2-({(2S)-2-amino-3-[(2-{[2-(3-fluorophenyl)ethyl]amino}-6-(1-methylpyrazol-4-yl)(3-pyridyl))carbonylamino]propyl}amino)acetate]	10900
COC(=O)CNC[C@H](N)CNC(=O)c1ccc(-c2ccccc2C#N)nc1NCCc1cccc(F)c1 [methyl 2-({(2S)-2-amino-3-[(6-(2-cyanophenyl)-2-{[2-(3-fluorophenyl)ethyl]amino}(3-pyridyl))carbonylamino]propyl}amino)acetate]	913
COC(=O)CNC(=O)c1ccc(-c2ccccc2C#N)nc1NCCc1cccc(F)c1 [methyl 2-[(6-(2-cyanophenyl)-2-{[2-(3-fluorophenyl)ethyl]amino}-3-pyridyl)carbonylamino]acetate]	101
COC(=O)c1cccc(CCNc2nc(-c3ccccc3)ccc2C(=O)NCc2cccnc2)c1 [methyl 3-[2-({6-phenyl-3-[N-(3-pyridylmethyl)carbamoyl]-2-pyridyl}amino)ethyl]benzoate]	28100
COC(=O)CCC(=O)N1CCC[C@@H]1CNC(=O)c1ccc(-c2cnn(C)c2)nc1NCCc1cccc(F)c1 [methyl 4-((2R)-2-{[(2-{[2-(3-fluorophenyl)ethyl]amino}-6-(1-methylpyrazol-4-yl)(3-pyridyl))carbonylamino]methyl}pyrrolidinyl)-4-oxobutanoate]	3940
COC(=O)CCC(=O)N1CCC[C@@H]1CNC(=O)c1cc(F)c(-c2cnn(C)c2)nc1NCCc1cccc(F)c1 [methyl 4-((2R)-2-{[(5-fluoro-2-{[2-(3-fluorophenyl)ethyl]amino}-6-(1-methylpyrazol-4-yl)(3-pyridyl))carbonylamino]methyl}pyrrolidinyl)-4-oxobutanoate]	534
COC(=O)CCC(=O)N1CC[C@@H]1CNC(=O)c1ccc(-c2ccccc2C#N)nc1NCCc1cccc(F)c1 [methyl 4-((2R)-2-{[(6-(2-cyanophenyl)-2-{[2-(3-fluorophenyl)ethyl]amino}(3-pyridyl))carbonylamino]methyl}azetidinyl)-4-oxobutanoate]	519
COC(=O)CCC(=O)N1CCC[C@@H]1CNC(=O)c1ccc(-c2ccccc2C#N)nc1NCCc1cccc(F)c1 [methyl 4-((2R)-2-{[(6-(2-cyanophenyl)-2-{[2-(3-fluorophenyl)ethyl]amino}(3-pyridyl))carbonylamino]methyl}pyrrolidinyl)-4-oxobutanoate]	657
COC(=O)CCCNC(=O)c1ccc(-c2ccccc2C#N)nc1NCCc1cccc(F)c1 [methyl 4-[(6-(2-cyanophenyl)-2-{[2-(3-fluorophenyl)ethyl]amino}-3-pyridyl)carbonylamino]butanoate]	713
COC(=O)c1ccc(-c2ccc(C(=O)NCc3cccnc3)c(NCCc3ccccn3)n2)cc1 [methyl 4-{6-[(2-(2-pyridyl)ethyl)amino]-5-[N-(3-pyridylmethyl)carbamoyl]-2-pyridyl}benzoate]	989

Compound	IC50 [nM]
COC(=O)N1CCC(CNC(=O)c2ccc(-c3ccccc3C#N)nc2NCCc2cccc(F)c2)CC1 [methyl 4-{[(6-(2-cyanophenyl)-2-{[2-(3-fluorophenyl)ethyl]amino}-3-pyridyl)carbonylamino]methyl}piperidinecarboxylate]	2130
COC(=O)c1cc(Cl)c(-c2cnn(C)c2)nc1NCCc1cccc(F)c1 [methyl 5-chloro-2-{[2-(3-fluorophenyl)ethyl]amino}-6-(1-methylpyrazol-4-yl)pyridine-3-carboxylate]	15500
COC(=O)c1cccc(CNC(=O)c2ccc(-c3ccccc3C#N)nc2NCCc2cccc(F)c2)n1 [methyl 6-{[(6-(2-cyanophenyl)-2-{[2-(3-fluorophenyl)ethyl]amino}-3-pyridyl)carbonylamino]methyl}pyridine-2-carboxylate]	64
COC(=O)[C@@H](CO)NC(=O)c1ccc(-c2ccccc2C#N)nc1NCCc1cccc(F)c1 [methyl (2R)-2-[(6-(2-cyanophenyl)-2-{[2-(3-fluorophenyl)ethyl]amino}(3-pyridyl))carbonylamino]-3-hydroxypropanoate]	513
COC(=O)[C@@H](C)NC(=O)c1ccc(-c2ccccc2C#N)nc1NCCc1cccc(F)c1 [methyl (2R)-2-[(6-(2-cyanophenyl)-2-{[2-(3-fluorophenyl)ethyl]amino}(3-pyridyl))carbonylamino]propanoate]	743
COC(=O)[C@@H](CNC(=O)c1cc(F)c(-c2cnn(C)c2)nc1NCCc1cccc(F)c1)NC(=O)OC(C)(C)C [methyl (2R)-2-[(tert-butoxy)carbonylamino]-3-[(5-fluoro-2-{[2-(3-fluorophenyl)ethyl]amino}-6-(1-methylpyrazol-4-yl)(3-pyridyl))carbonylamino]propanoate]	90800
COC(=O)[C@H](N)CNC(=O)c1cc(F)c(-c2cnn(C)c2)nc1NCCc1cccc(F)c1 [methyl (2R)-2-amino-3-[(5-fluoro-2-{[2-(3-fluorophenyl)ethyl]amino}-6-(1-methylpyrazol-4-yl)(3-pyridyl))carbonylamino]propanoate]	568
COC(=O)[C@H](N)CNC(=O)c1ccc(-c2ccccc2C#N)nc1NCCc1cccc(F)c1 [methyl (2R)-2-amino-3-[(6-(2-cyanophenyl)-2-{[2-(3-fluorophenyl)ethyl]amino}(3-pyridyl))carbonylamino]propanoate]	2290
COC(=O)N1CC[C@@H]1CNC(=O)c1ccc(-c2cn[nH]c2)nc1NCCc1cccc(F)c1 [methyl (2R)-2-{[(2-{[2-(3-fluorophenyl)ethyl]amino}-6-pyrazol-4-yl(3-pyridyl))carbonylamino]methyl}azetidinecarboxylate]	245
CC[C@H](CNC(=O)c1cc(F)c(-c2cnn(C)c2)nc1NCCc1cccc(F)c1)C(=O)OC [methyl (2R)-2-{[(5-fluoro-2-{[2-(3-fluorophenyl)ethyl]amino}-6-(1-methylpyrazol-4-yl)(3-pyridyl))carbonylamino]methyl}butanoate]	117
CC[C@H](CNC(=O)c1cc(F)c(-c2cn[nH]c2)nc1NCCc1cccc(F)c1)C(=O)OC [methyl (2R)-2-{[(5-fluoro-2-{[2-(3-fluorophenyl)ethyl]amino}-6-pyrazol-4-yl(3-pyridyl))carbonylamino]methyl}butanoate]	117
COC(=O)N1CC[C@@H]1CNC(=O)c1ccc(-c2ccccc2C#N)nc1NCCc1cccc(F)c1 [methyl (2R)-2-{[(6-(2-cyanophenyl)-2-{[2-(3-fluorophenyl)ethyl]amino}(3-pyridyl))carbonylamino]methyl}azetidinecarboxylate]	73
COC(=O)N1CCNC[C@@H]1CNC(=O)c1ccc(-c2ccccc2C#N)nc1NCCc1cccc(F)c1 [methyl (2R)-2-{[(6-(2-cyanophenyl)-2-{[2-(3-fluorophenyl)ethyl]amino}(3-pyridyl))carbonylamino]methyl}piperazinecarboxylate]	11600
COC(=O)N1CCCC[C@@H]1CNC(=O)c1ccc(-c2ccccc2C#N)nc1NCCc1cccc(F)c1 [methyl (2R)-2-{[(6-(2-cyanophenyl)-2-{[2-(3-fluorophenyl)ethyl]amino}(3-pyridyl))carbonylamino]methyl}piperidinecarboxylate]	4280
COC(=O)N1CCC[C@@H]1CNC(=O)c1ccc(-c2ccccc2C#N)nc1NCCc1cccc(F)c1 [methyl (2R)-2-{[(6-(2-cyanophenyl)-2-{[2-(3-fluorophenyl)ethyl]amino}(3-pyridyl))carbonylamino]methyl}pyrrolidinecarboxylate]	101
COC(=O)[C@H](C)CNC(=O)c1cc(F)c(-c2cnn(C)c2)nc1NCCc1cccc(F)c1 [methyl (2R)-3-[(5-fluoro-2-{[2-(3-fluorophenyl)ethyl]amino}-6-(1-methylpyrazol-4-yl)(3-pyridyl))carbonylamino]-2-methylpropanoate]	100
COC(=O)[C@H](C)CNC(=O)c1cc(F)c(-c2cn[nH]c2)nc1NCCc1cccc(F)c1 [methyl (2R)-3-[(5-fluoro-2-{[2-(3-fluorophenyl)ethyl]amino}-6-pyrazol-4-yl(3-pyridyl))carbonylamino]-2-methylpropanoate]	73
